Laboratory results as given in paper PMC9599757, “Leveraging the Structure of DNAJA1 to Discover Novel Potential Pancreatic Cancer Therapies” (Biomolecules, 2022).

Experiments:
DNAJA1 [1] = target: T1, DNAJA1 (Homo sapiens, UniProt P31689); test: 1D […] NMR line broadening and 2D 1H-15N HSQC chemical shift perturbation; format: binding
T1 construct: DNAJA1-107 (residues 1 to 107, J-domain and linker, N-terminal 6x-His tag)

DNAJA1 [2] = target: T1, DNAJA1; test: ITC; STD NMR and 2D 1H-15N HSQC chemical shift perturbation; format: binding
[3] = target: T2, DNAJA1-107 (residues 1 to 107 of human DnaJ homolog subfamily A member 1) (human, UniProt P31689 1-107); test: NMR titration; 15N-DNAJA1-107 mixed with ANT3 (232-272) at DNAJA1-107:ANT3 molar ratios 10:1, 5:1 and 1:1 (50 uM each at equal molarity); 10 mM Tris-HCl, 1 mM EDTA, 6% trehalose, pH 8.0; 2D 1H-15N HSQC; immediate, concentration-dependent precipitation on mixing taken as the sign of interaction; conditions: both partners purified
T2 construct: The methods name an N-terminal 6x-histidine tag; 15N-labelled for the NMR experiment with ANT3; source: for the pull-down immobilised on cobalt resin; not shown: His6, N-terminal, kept

Molecule	Kd (DNAJA1 [2]) [µM]	also measured
Nc1ncnc2c1ncn2[C@@H]1O[C@H](COP(=O)(O)OP(=O)(O)O)[C@@H](O)[C@H]1O [ADP]	–	1D 31P NMR line broadening and 2D 1H-15N HSQC chemical shift perturbation (DNAJA1 [1]): ADP, O-phospho-L-serine, O-phospho-L-tyrosine, and dihydroxyacetone phosphate exhibited specific binding to DNAJA1-107
CCOc1ccc(-c2cc(OC(=O)c3cccs3)c3c(C)oc(C)c3c(=O)c2)cc1 [compound 7727968, 6-(4-ethoxyphenyl)-1,3-dimethyl-4-oxo-4H-cyclohepta[c]furan-8-yl 2-thiophenecarboxylate]	10	–
O=C(c1ccc(Br)s1)N1CCN(c2ccc(F)cc2)CC1 [compound 9101204, 1-[(5-bromo-2-thienyl)carbonyl]-4-(4-fluorophenyl)piperazine]	0.1 ± 0.3	–
DTVRRRMMMQSGRKGADIMYTGTVDCWRKIFRDEGGKAFFK (domain or fragment, UniProt P12236 232-272, looked up, ADP/ATP translocase 3 (ANT3), human, amino acids 232-272; The construct included an N-terminal 6xHis-KSI tag to aid purification and solubility; also called ANT3 construct; source: bought: CUSABIO, catalog number CSB-EP021520HU1) [Recombinant Human ADP/ATP translocase 3 (ANT3), amino acids 232-272]	–	binding result [3]: binds
